# Data published in PubChem BioAssay AID1963441 (Molecular Pharmacology Branch, DTP, NCI, 2024).
# “And” between values parts separate entries of the source, which are not always exact repeats. Equal values may be shown once.
# Tested on: NCI-H1876 complex spheroid growth, % test/control
# Test: Anticancer human tumor NCI-H1876 cell line growth inhibition [Asc];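 note: compound exposure lasted 7 days starting three days after seeding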;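 for viability, T/C: 100% = DMSO vehicle control wells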
# Conditions: for viability, T/C: stronger effect = lower value
# Protocol: Multicellular complex tumor spheroid response to apoptosis pathway targeting inhibitors Alrizomadlin, Pelcitoclax, and Dasminapant in combination with a variety of drugs and investigational agents in selected tumor cell lines
# The MDM2 inhibitor alrizomadlin, the Bcl-2/Bcl-xL inhibitor pelcitoclax, and the IAPs inhibitor dasminapant were evaluated both individually and in combination with standard of care and investigational anticancer small molecules within a complex spheroid model of solid tumors. . Complex spheroids include a stromal component modeled by human endothelial cells (HUVEC) and fibroblasts modeled by human mesenchymal stem cells (MSCs). The concentration ranges selected for each drug and investigational agent were based upon clinically achievable concentrations if the clinical Cmax of the agent was known.
# Compounds. The drugs and investigational agents: alrizomadlin (APG-115; NSC831270), pelcitoclax (APG-1252; NSC835773), dasminapant (APG-1387;NSC834197), TAK-243 (NSC785004), copanlisib (NSC809693), olaparib (NSC753686), talazoparib (NSC767125), cobimetinib (NSC 768068), eltanexor (KPT-8602, NSC 794443), abemaciclib (NSC 768073), sotorasib (NSC818433), adagrasib (NSC 831453), MRTX-1133 (NSC 836407), Iadademestat (ORY1001, NSC 806812), and RMC-4630 (NSC839698), were obtained from the NCI Developmental Therapeutics Program Chemical Repository. The FDA-approved anticancer drug set is available from the Developmental Therapeutics Program at https://dtp.cancer.gov/organization/dscb/obtaining/available plates.htm. […] The stock solutions were prepared in dimethyl sulfoxide (DMSO, Sigma-Aldrich, St. Louis, MO, cat. D2650) at 800-fold the tested concentration and stored at -70 degrees C prior to their use. All drugs and investigational agents were tested over a range starting from a high concentration at or near the clinical Cmax and decreasing in half-log increments. If the clinical Cmax for an agent had not been determined, the highest concentration tested was 10 microM.
# The patient-derived cancer (PDC) cell lines include five colon adenocarcinomas: 186277-243-T-J2-PDC, 616215-338-R-J1-PDC, 439559-082-T-J2-PDC, 463943-066-T-J2-PDC, and 519858-162-T-J1-PDC; three pancreatic carcinomas: 323965-272-R-J2-PDC, 521955-158-R6-J3-PDC, and 521955-158-R2-J5-PDC; two uterine sarcomas: 327498-152-R-J2-PDC and 993429-296-R-J1-PDC; two rhabdomyosarcomas: 755483-174-R-J1-PDC and 772245-204-R-J1-PDC; two soft tissue sarcomas: 126254-015-R-J1-PDC and 494315-158-R-J1-PDC; two malignant fibrous histiocytomas: 317291-083-R-J1-PDC and 596521-263-R-J1-PDC; two breast carcinomas: 171881-019-R-J1-PDC and 885512-296-R-J2-PDC; and one ovarian carcinoma: 6556581-035-R-J-PDC were obtained from the NCI PDMR, (https://pdmr.cancer.gov). The established cell lines HSSY-2 synovial sarcoma (RRID:CVCL 8719), SYO-1 synovial sarcoma (RRID:CVCL_7146), MPNST malignant peripheral neural sheath tumor were obtained from the Sloan Kettering Institute. The following established cell lines were purchased from the American Type Culture Collection (ATCC, Manassas, VA), Sor the received from the NCI repository:, PANC-1 pancreatic carcinoma (CRL-1469, RRID:CVCL_0480), OVCAR-5 ovarian carcinoma (RRID:CVCL_1628), OVCAR-8 ovarian carcinoma (RRID:CVCL_1629), , MCF-7 breast carcinoma (CRL-12584, RRID:CVCL_0031), MDA-MB-231 breast carcinoma (CRL-12532, RRID:CVCL_0062), NCI-H1876 small cell lung carcinoma (CRL-5902, RRID:CVCL_1503), NCI-H510A small cell lung carcinoma (HTB-184, RRID:CVCL_1565), NCI-H1417 (CRL-5869, RRID:CVCL_1469), and NCI-H196 small cell lung carcinoma (CRL-5823, RRID:CVCL_1509). Dr. Peter Houghton (Greehey Children's Cancer Research Institute, University of Texas Health Science Center, San Antonio, TX) provided Rh-18 rhabdomyosarcoma (RRID:CVCL_1659). Pooled donor human umbilical vein endothelial cells (HUVEC, Lonza, cat. CC-2519) and human mesenchymal stem cells (hMSC, Lonza, cat. PT-2501) were purchased from Lonza (Walkersville, MD).
# Cell Culture. […]
# [1] = compound alone, run of 11/07/2022
SMILES,"viability, T/C (compound 0.0316 µM)","viability, T/C (compound 0.1 µM)","viability, T/C (compound 0.316 µM)","viability, T/C (compound 1 µM)","viability, T/C (compound 3.16 µM)",IC50 (curve of compound),"viability, T/C (compound 0.00316 µM)","viability, T/C (compound 0.01 µM)",other results
C#Cc1c(F)ccc2cc(O)cc(-c3ncc4c(N5CC6CCC(C5)N6)nc(OCC56CCCN5CC(F)C6)nc4c3F)c12 (stereo not given),104% (2×) and 97.2%,82.3% and 98.9% and 99.3%,112% and 115% and 94.7%,92.9% and 80.2% and 91%,90.2% and 97.4% and 102%,> 10 µM,,,"viability, T/C (compound 10 µM): 89.6% (2×) and 88.2%"
C=C(F)C(=O)N1CCN(c2nc(OCC3CCCN3C)nc3c2CCN(c2cccc4cccc(Cl)c24)C3)CC1CC#N (stereo not given),94.3% and 102% and 97.8%,97.6% and 92.2% and 89.2%,101% and 95.3% and 93%,108% and 93% and 105%,98% and 90.9% and 102%,5.59 µM and 6 µM and 6.86 µM,,,
C=CC(=O)N1CCN(c2nc(=O)n(-c3c(C)ccnc3C(C)C)c3nc(-c4c(O)cccc4F)c(F)cc23)C(C)C1 (stereo not given),116% and 95.9% and 101%,99.4% and 96% and 86.8%,106% and 93.2% and 97.1%,101% (2×) and 100%,113% and 108% and 106%,> 10 µM,,,"viability, T/C (compound 10 µM): 110% and 106% and 109%"
CCN1C(C(=O)NC23CCC(C(=O)O)(CC2)CC3)C(c2cccc(Cl)c2F)C2(C(=O)Nc3cc(Cl)ccc32)C12CCCCC2 (stereo not given),,,,,,> 3 µM,,,"viability, T/C (compound 0.00949 µM): 109% [middle of 9 runs]; viability, T/C (compound 0.0949 µM): 103% [middle of 9 runs]; viability, T/C (compound 3 µM): 107% [middle of 9 runs]; IC50 [1]: > 3 µM"
CCN1CCN(Cc2ccc(Nc3ncc(F)c(-c4cc(F)c5nc(C)n(C(C)C)c5c4)n3)nc2)CC1,97.1% and 101% and 106%,105% and 100% and 106%,114% (2×) and 120%,126% and 132% and 131%,,> 1 µM,101% and 103% and 104%,94.1% and 101% and 89.8%,
CNC(C)C(=O)NC1CN(S(=O)(=O)c2cccc(S(=O)(=O)N3CCC4CCC(C(=O)NC(c5ccccc5)c5ccccc5)N4C(=O)C(NC(=O)C(C)NC)C3)c2)CCC2CCC(C(=O)NC(c3ccccc3)c3ccccc3)N2C1=O (stereo not given),105% [middle of 9 runs],103% [middle of 9 runs],101% [middle of 9 runs],93.7% [middle of 9 runs],,> 1 µM,,103% [middle of 9 runs],"IC50 (compound alone, run of 11/15/2022): > 1 µM"
COc1c(OCCCN2CCOCC2)ccc2c3n(c(=NC(=O)c4cnc(N)nc4)nc12)CCN3,85% and 84.5% and 99.3%,79.1% and 75.3% and 72%,64.5% and 59.5% and 60.7%,48.8% and 45.6% and 44.9%,,0.724 µM and 0.679 µM and 0.992 µM,106% and 91.5% and 100%,89.7% and 97.9% and 107%,
Cc1c(S(C)(=O)=O)c(-c2cc(F)cc(N3CCN(c4ccc(NS(=O)(=O)c5ccc(NC(CCN6CCC(C(=O)OCCCP(=O)(O)O)CC6)CSc6ccccc6)c(S(=O)(=O)C(F)(F)F)c5)cc4)CC3)c2)c(-c2ccc(Cl)cc2)n1C(C)C (stereo not given),109% [middle of 7 runs],101% [middle of 7 runs],96.3% [middle of 7 runs],90.5% [middle of 7 runs],95.5% [middle of 7 runs],,,,"viability, T/C (compound 10 µM): 102% [middle of 7 runs]; IC50 [1]: > 10 µM"
Cc1nc(N2CCC3(CC2)COC(C)C3N)c(CO)nc1Sc1ccnc(N)c1Cl (stereo not given),,,,,,> 3 µM,,,"viability, T/C (compound 0.00949 µM): 102% and 105% and 103%; viability, T/C (compound 0.03 µM): 92.8% and 87.9% and 89.1%; viability, T/C (compound 0.0949 µM): 103% and 84.3% and 92.5%; viability, T/C (compound 0.3 µM): 79.5% and 84.7% and 86%; viability, T/C (compound 0.949 µM): 78.4% and 84% and 94.5%; viability, T/C (compound 3 µM): 75.5% and 87.1% and 88.2%"
Cn1ncnc1[C@H]1c2n[nH]c(=O)c3cc(F)cc(c23)N[C@@H]1c1ccc(F)cc1,98.4% and 99.3% and 105%,86% and 101% and 97.6%,,,,> 0.1 µM,95.7% and 88.1% and 105%,102% and 96.1% and 94.6%,"viability, T/C (compound 0.000316 µM): 93.5% and 106% and 102%; viability, T/C (compound 0.001 µM): 90.9% and 86.1% and 110%"
NC(=O)C(=Cn1cnc(-c2cc(C(F)(F)F)cc(C(F)(F)F)c2)n1)c1cncnc1,,,,,,> 0.3 µM,,,"viability, T/C (compound 0.000949 µM): 104% and 99.4% (2×); viability, T/C (compound 0.003 µM): 90.3% and 91.5% and 85.9%; viability, T/C (compound 0.00949 µM): 93.9% and 92.5% and 90.8%; viability, T/C (compound 0.03 µM): 92.4% and 98.6% and 97.9%; viability, T/C (compound 0.0949 µM): 97.5% and 80.5% and 104%; viability, T/C (compound 0.3 µM): 74.8% and 77.2% and 94.8%"
NC1CCC(NC2CC2c2ccccc2)CC1 (stereo not given),116% and 112% and 131%,107% and 112% and 136%,,,,> 0.1 µM,118% and 112% and 134%,116% and 106% and 120%,"viability, T/C (compound 0.000316 µM): 121% and 119% (2×); viability, T/C (compound 0.001 µM): 108% and 95.7% and 118%"
O=C(c1cc(Cc2n[nH]c(=O)c3ccccc23)ccc1F)N1CCN(C(=O)C2CC2)CC1,94.3% and 103% and 108%,84.8% and 92.7% and 94%,105% and 102% (2×),115% and 118% and 99.5%,96.9% and 121% and 98.1%,> 10 µM,,,"viability, T/C (compound 10 µM): 75.5% and 85.2% and 68.7%"
O=C(c1ccc(F)c(F)c1Nc1ccc(I)cc1F)N1CC(O)([C@@H]2CCCCN2)C1,93.7% and 92.9% and 99%,97.5% and 91.4% and 95%,86.5% and 84.5% and 83.9%,79.9% and 75.1% and 76.9%,,> 1 µM,101% and 103% (2×),86.9% and 95% and 94%,
